# Assay results taken from patent publication US6987101B1, “Therapeutic gestagens for the treatment of premenstrual dysphoric disorder” (Schering Aktiengesellschaft, priority 1996, dated 2006).
# Tested on: premenstrual dysphoric disorder (PMDD) symptoms
# Test: Oral treatment of women classified as PMDD patients over 4 to 6 cycles, re-evaluation of symptom criteria 1 to 11
# Assay type: in vivo, fertile women
# Settings: 3 mg drospirenone together with 30 μg ethinylestradiol orally daily, day 1 to day 21 of the cycle, then 7 pill-free or placebo days; evaluated after 4 to 6 cycles; all of the women treated
# Text: In the prospective evaluation by recording the symptoms of the patient over 2 or 3 menstrual cycles, 5 (or more) of the symptoms that are listed below occur during the last week of the luteal phase, but no longer occur postmenstrually. At least one of the symptoms must be the first, second, third or fourth symptom below. • 1. Noticeably stressed mental state, feelings of hopelessness or self-doubt • 2. Noticeable feeling of anxiety, tension, feeling of “being on the edge” • 3. Noticeable emotional tendencies (e.g., suddenly feeling sad or fretful or increased sensitivity to rejection) • 4. Lasting and noticeable feelings of unease or irritability or increased interpersonal conflicts • 5. Decreasing interest in conventional activities (e.g., work, school, friends, hobbies) • 6. Subjective sensation of concentration difficulties • 7. Lethargy, slight exhaustion or noticeable lack of energy • 8. Noticeable change in appetite, overeating or special food cravings • 9. […]
# Fertile women, who were classified according to the above-indicated criteria 1. to 11. as PMDD patients, are treated orally over at least 4 cycles, in each case from day 1 to day 21 of the cycle daily, with an amount of 3 mg of drospirenone together with 30 μg of ethinylestradiol. […] After a treatment over 4 to 6 cycles, the symptoms that fall into the category criteria 1. to 11. are carefully evaluated again.
smiles,measurement,value
C[C@]12CCC(=O)C=C1[C@@H]1C[C@@H]1[C@H]1[C@@H]3[C@@H]4C[C@@H]4[C@@]4(CCC(=O)O4)[C@@]3(C)CC[C@@H]12 [drospirenone],improvement relative to at least one of the PMDD symptoms that occurred before the beginning of the treatment (not only the 11th symptom),significant improvement
